Data as given in PubChem BioAssay AID1963982 (Molecular Pharmacology Branch, DTP, NCI, 2024).
pIC50: −log10 of the molar value.

System: 313798-341-R-J2-PDC spheroids, viability
Experiment: Anticancer human tumor 313798-341-R-J2-PDC patient-derived cervical squamous cell carcinoma cell line growth inhibition [PI3K]
Conditions: spheroids with HUVEC and MSC; for pIC50: curve of first compound; for viability, T/C: stronger effect = lower value
Excerpt: Combinatorial screen of targeted agents with the PI3K inhibitors inavolisib, alpelisib, duvelisib, and copanlisib in multi-cell type tumor spheroids
A high-throughput screen of multi-cell type tumor spheroids was designed to identify active combinations of targeted small molecules and PI3K pathway inhibitors. Complex spheroids include a stromal component modeled by human endothelial cells (HUVEC) and fibroblasts modeled by human mesenchymal stem cells (MSCs). The concentration ranges selected for each drug and investigational agent were based upon clinically achievable concentrations if the clinical Cmax of the agent was known.
Compounds. The drugs and investigational agents: inavolisib (NSC800729), alpelisib (NSC765974), duvelisib (NSC772469), copanlisib (NSC816437), ipatasertib (NSC767898), afuresertib (NSC778305), talazoparib (NSC767125), sapanisertib (NSC764658), selumetinib (NSC741078), tovorafenib (DAY101, NSC766906), vemurafenib (NSC761431), ravoxertinib (NSC781343), sotorasib (NSC818433), MRTX1133 (NSC 836407), abemaciclib (NSC 768073), palbociclib (NSC758247), venetoclax (NSC 766270), SY5609 (NSC837396), enzalutamide (NSC755605), and darolutamide (NSC825331), were obtained from the National Cancer Institute (NCI) Developmental Therapeutics Program Chemical Repository. The FDA-approved anticancer drug set is available from the NCI Developmental Therapeutics Program. […] The stock solutions were prepared in dimethyl sulfoxide (DMSO, Sigma-Aldrich, St. Louis, MO, cat. D2650) at 800-fold the tested concentration and stored at -70 degrees C prior to their use. All drugs and investigational agents were tested over a range starting from a high concentration at or near the clinical Cmax and decreasing in half-log increments. If the clinical Cmax for an agent had not been determined, the highest concentration tested was 10 microM.
Cell Culture. All cells were maintained in an incubator at 37 degrees C and 5% CO2 with 95% humidity. The PDC lines were cultured according to standard operating procedures established by the NCI PDMR (https://pdmr.cancer.gov/sops/default.htm). All PDCs were thawed and cultured in Matrigel-coated flasks prepared with a working solution of 1X Ham's F-12 nutrient mix, without supplementation (Invitrogen, Waltham, MA, cat. 11765054), 100 U/mL penicillin-streptomycin (Invitrogen, cat. 15140122), and 2.5% Matrigel (Corning Inc., Corning, NY, cat. 354248) for the first three passages. The 354836-022-R-J1-PDC, 475296-252-R-J1-PDC, and 997726-040-R-J2-PDC lines were cultured in 6A media, which includes advanced DMEM/F-12 (Thermo Fisher Scientific, cat. 12634028), 10 mM HEPES (Thermo Fisher Scientific, cat. 15630080), 1X GlutaMAX supplement (Thermo Fisher Scientific, cat. 35050061), 0.1 mg/mL primocin (InvivoGen, San Diego, CA, cat. ant-pm-2), 10% defined fetal bovine serum, heat inactivated (HyClone Laboratories Inc., Logan, UT, cat. SH30070.03HI), 50% L-WRN conditioned media (ATCC, cat. CRL-3276), 1.25 mM N-Acetyl-L-cysteine (Sigma-Aldrich, cat. A9165), 10 mM nicotinamide (Sigma-Aldrich, cat. N0636), 1X B-27 supplement (Thermo Fisher Scientific, cat. 17504044), 1X N-2 supplement (Thermo Fisher Scientific, cat. 17502048), and 10 microM Y-27632 dihydrochloride (Tocris Bioscience, Bristol, United Kingdom, cat. 1254). The 624824-186-R-J2-PDC line was cultured in 6C/Colon 1B media, which includes all 6A media components plus 50 ng/mL human EGF recombinant protein (Thermo Fisher Scientific, cat. PHG0311). […]

[1] = second compound 0.0316 µM, first compound 0.0316 µM
[2] = second compound 0.0316 µM, first compound 0.1 µM
[3] = second compound 0.0316 µM, first compound 0.316 µM
[4] = second compound 0.0316 µM, first compound 1 µM
[5] = second compound 0.0316 µM, first compound 3.16 µM
[6] = second compound 0.0316 µM, first compound 10 µM
[7] = second compound 0.1 µM, first compound 0.0316 µM
[8] = second compound 0.1 µM, first compound 0.1 µM
[9] = second compound 0.1 µM, first compound 0.316 µM
[10] = second compound 0.1 µM, first compound 1 µM
[11] = second compound 0.1 µM, first compound 3.16 µM
[12] = second compound 0.1 µM, first compound 10 µM
[13] = second compound 0.316 µM, first compound 0.0316 µM
[14] = second compound 0.316 µM, first compound 0.1 µM
[15] = second compound 0.316 µM, first compound 0.316 µM
[16] = second compound 0.316 µM, first compound 1 µM
[17] = second compound 0.316 µM, first compound 3.16 µM
[18] = second compound 0.316 µM, first compound 10 µM
[19] = second compound 1 µM, first compound 0.0316 µM
[20] = second compound 1 µM, first compound 0.1 µM
[21] = second compound 1 µM, first compound 0.316 µM
[22] = second compound 1 µM, first compound 1 µM
[23] = second compound 1 µM, first compound 3.16 µM
[24] = second compound 1 µM, first compound 10 µM
[25] = second compound 3.16 µM, first compound 0.0316 µM
[26] = second compound 3.16 µM, first compound 0.1 µM
[27] = second compound 3.16 µM, first compound 0.316 µM
[28] = second compound 3.16 µM, first compound 1 µM
[29] = second compound 3.16 µM, first compound 3.16 µM
[30] = second compound 3.16 µM, first compound 10 µM
[31] = second compound 10 µM, first compound 0.0316 µM
[32] = second compound 10 µM, first compound 0.1 µM
[33] = second compound 10 µM, first compound 0.316 µM
[34] = second compound 10 µM, first compound 1 µM
[35] = second compound 10 µM, first compound 3.16 µM
[36] = second compound 10 µM, first compound 10 µM
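Note: spheroids exposed to compounds for seven days.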
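Throughout, for viability, T/C: 100% = DMSO vehicle control viability.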

`CC1(C)CCC(CN2CCN(c3ccc(C(=O)NS(=O)(=O)c4ccc(NCC5CCOCC5)c([N+](=O)[O-])c4)c(Oc4cnc5[nH]ccc5c4)c3)CC2)=C(c2ccc(Cl)cc2)C1` + Cc1nc(NC(=O)N2CCCC2C(N)=O)sc1-c1ccnc(C(C)(C)C(F)(F)F)c1 showed a pIC50 (second compound 0.0316 µM) of 5.24, a pIC50 (second compound 0.1 µM) of 5.24 and a pIC50 (second compound 0.316 µM) of 5.27. The pIC50 (second compound 1 µM) was 5.37, the pIC50 (second compound 3.16 µM) was 5.77 and the pIC50 (second compound 10 µM) was > 7.50. It also gave a viability, T/C [1] of 102%, a viability, T/C [2] of 115% and a viability, T/C [3] of 104%. For the same compound, the viability, T/C [4] was 101%, the viability, T/C [5] was 84.4% and the viability, T/C [6] was 19.3%. It also gave a viability, T/C [7] of 115%, a viability, T/C [8] of 101% and a viability, T/C [9] of 110%. The viability, T/C [10] was 97.9%, the viability, T/C [11] was 85% and the viability, T/C [12] was 19.8%. It also gave a viability, T/C [13] of 111%, a viability, T/C [14] of 103% and a viability, T/C [15] of 112%. For the same compound, the viability, T/C [16] was 107%, the viability, T/C [17] was 75.7% and the viability, T/C [18] was 18.7%. It also gave a viability, T/C [19] of 91.5%, a viability, T/C [20] of 104% and a viability, T/C [21] of 97.2%. It also gave a viability, T/C [22] of 90.7%, a viability, T/C [23] of 60.8% and a viability, T/C [24] of 17.9%. It also gave a viability, T/C [25] of 69.3%, a viability, T/C [26] of 66.7% and a viability, T/C [27] of 63.9%. The viability, T/C [28] was 59.3%, the viability, T/C [29] was 40.2% and the viability, T/C [30] was 18.3%. The viability, T/C [31] was 38.6%, the viability, T/C [32] was 34.1% and the viability, T/C [33] was 38.1%. For the same compound, the viability, T/C [34] was 35.7%, the viability, T/C [35] was 33% and the viability, T/C [36] was 15.1%.
In the case of `CC1(C)CCC(Nc2ncc(C(F)(F)F)c(-c3c[nH]c4c(P(C)(C)=O)c(C#N)ccc34)n2)CN1` (centres undefined) + CC(Nc1ncnc2nc[nH]c12)c1cc2cccc(Cl)c2c(=O)n1-c1ccccc1, the pIC50 (second compound 0.0316 µM) was > 7.50, the pIC50 (second compound 0.1 µM) was > 7.50 and the pIC50 (second compound 0.316 µM) was > 7.50. For the same compound, the pIC50 (second compound 1 µM) was > 7.50, the pIC50 (second compound 3.16 µM) was > 7.50 and the pIC50 (second compound 10 µM) was > 7.50. The viability, T/C [1] was 54.2%, the viability, T/C [2] was 46.3% and the viability, T/C [3] was 46.9%. It also gave a viability, T/C [4] of 48%, a viability, T/C [5] of 50.5% and a viability, T/C [6] of 60.4%. The viability, T/C [7] was 47.3%, the viability, T/C [8] was 49.3% and the viability, T/C [9] was 47.3%. For the same compound, the viability, T/C [10] was 46.8%, the viability, T/C [11] was 50.3% and the viability, T/C [12] was 66.6%. For the same compound, the viability, T/C [13] was 49.3%, the viability, T/C [14] was 44.3% and the viability, T/C [15] was 44.3%. The viability, T/C [16] was 43.8%, the viability, T/C [17] was 51.8% and the viability, T/C [18] was 62.3%. For the same compound, the viability, T/C [19] was 47.4%, the viability, T/C [20] was 46.8% and the viability, T/C [21] was 45.5%. It also gave a viability, T/C [22] of 49.2%, a viability, T/C [23] of 54% and a viability, T/C [24] of 58.2%. The viability, T/C [25] was 49.2%, the viability, T/C [26] was 45.4% and the viability, T/C [27] was 42.7%. It also gave a viability, T/C [28] of 45.8%, a viability, T/C [29] of 43.7% and a viability, T/C [30] of 50.3%. For the same compound, the viability, T/C [31] was 42.1%, the viability, T/C [32] was 36.2% and the viability, T/C [33] was 35%. The viability, T/C [34] was 34.5%, the viability, T/C [35] was 38.1% and the viability, T/C [36] was 38.1%.
